Test systems include MOLT-4 leukemia; NCI/ADR-RES ovarian; NCI-H23 lung; DMS 273 small cell lung; M19-MEL melanoma; CAKI-1 renal; IGROV1 ovarian; K-562 leukemia; SNB-78 CNS; P388 leukemia; MCF7 breast; NCI-H460 lung; SN12K1 renal; P388/ADR leukemia; HOP-18 NSCLC; XF 498 CNS; HOP-62 NSCLC; MDA-MB-435.
Common to all, as to assay: NCI tumour cell line growth inhibition, 48 h

Each structure is given as a SMILES string.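 Results reflect a 48-hour exposure of cells in 96-well plates to compound at five concentrations. GI50 marks 50% less growth. TGI: total growth inhibition.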 Where a SMILES comes first, the peptide text is derived from it. Bounds are passed on as bounds.

For the compound `CC1NC(=O)CNC(=O)CNC(=O)C(Cc2ccc(O)cc2)NC(=O)C(C(C)C)NC(=O)C(C)NC1=O` (stereo not given) (cyclo(GGAAVY); configuration not given here), the TGI in the assay with MOLT-4 leukemia, in the assay with NCI/ADR-RES ovarian, with NCI-H23 lung, with DMS 273 small cell lung, with M19-MEL melanoma and in the assay on CAKI-1 renal was more than 100 µM each time. Further, the TGI in the assay on IGROV1 ovarian, in the assay with K-562 leukemia, with SNB-78 CNS, with P388 leukemia, in the assay with MCF7 breast and in the assay on NCI-H460 lung was more than 100 µM in each case. Besides, the TGI in the assay on SN12K1 renal, in the assay on P388/ADR leukemia, in the assay on HOP-18 NSCLC, with XF 498 CNS and in the assay on HOP-62 NSCLC was more than 100 µM each time. Besides, the GI50 with K-562 leukemia and with SNB-78 CNS was more than 100 µM each time.
On to `NC(N)=NCCCC(N=c1c2ccccc2n(O)c2ccccc12)C(=O)O` (stereo not given), for which the TGI in the assay with MOLT-4 leukemia, in the assay on NCI-H23 lung, with DMS 273 small cell lung, in the assay with M19-MEL melanoma, in the assay on IGROV1 ovarian and in the assay on K-562 leukemia was more than 100 µM in each case. Moreover, the TGI with NCI-H460 lung, in the assay on HOP-18 NSCLC and in the assay with HOP-62 NSCLC was more than 100 µM throughout.
On to `CN(C)c1nc(N(C)C)nc(N(C)C)n1`, for which the TGI with MOLT-4 leukemia is 136 µM; in the assay on NCI/ADR-RES ovarian, more than 150 µM; in the assay on NCI-H23 lung, more than 143 µM; in the assay on DMS 273 small cell lung, more than 147 µM; in the assay with M19-MEL melanoma it was more than 148 µM; in the assay with CAKI-1 renal it was more than 140 µM. For the same compound, the TGI is more than 135 µM in the assay on IGROV1 ovarian; more than 150 µM in the assay on K-562 leukemia; more than 150 µM in the assay with SNB-78 CNS; more than 150 µM in the assay with P388 leukemia; more than 150 µM with MCF7 breast; more than 150 µM in the assay with NCI-H460 lung. The TGI was more than 150 µM in the assay on SN12K1 renal; more than 136 µM with P388/ADR leukemia; 87.3 µM in the assay with HOP-18 NSCLC; more than 150 µM with MDA-MB-435; more than 116 µM in the assay on XF 498 CNS; more than 142 µM with HOP-62 NSCLC.
As for `CC1=C2C(O)C(C(C)C(=O)NCC(C)C)CCC2(C)C=CC1=O` (stereo not given), the TGI in the assay with MOLT-4 leukemia, in the assay on NCI/ADR-RES ovarian, in the assay with NCI-H23 lung, with DMS 273 small cell lung, with M19-MEL melanoma and with CAKI-1 renal was more than 100 µM each time. The TGI in the assay with IGROV1 ovarian, in the assay with K-562 leukemia, with SNB-78 CNS, with P388 leukemia, with MCF7 breast and with NCI-H460 lung was more than 100 µM throughout. Besides, the TGI in the assay with SN12K1 renal, with P388/ADR leukemia, in the assay with HOP-18 NSCLC, in the assay with XF 498 CNS and with HOP-62 NSCLC was more than 100 µM throughout.
In the case of `C=C1C(=O)O[C@@H]2[C@H]3O[C@]3(C)CCC=C(C)CC[C@@H]12`, the TGI with MOLT-4 leukemia is 92 µM; with NCI/ADR-RES ovarian it was 45.3 µM; in the assay with NCI-H23 lung it was 52.7 µM; in the assay with DMS 273 small cell lung it was more than 60.3 µM; in the assay with M19-MEL melanoma, 33.7 µM; in the assay with CAKI-1 renal, 22.5 µM. Further, the TGI came out at 52.4 µM in the assay with IGROV1 ovarian; 130 µM in the assay with K-562 leukemia; 62 µM with SNB-78 CNS; 175 µM in the assay with P388 leukemia; 47.4 µM in the assay on MCF7 breast; 56.4 µM in the assay on NCI-H460 lung. The TGI with SN12K1 renal turned out to be 37.9 µM; in the assay on P388/ADR leukemia it was 27.9 µM; with HOP-18 NSCLC, 28.3 µM; in the assay with XF 498 CNS, 32.4 µM; with HOP-62 NSCLC, 102 µM.
For `Cc1ccc2c(c1)SSSSS2`, the TGI with MOLT-4 leukemia is more than 100 µM; in the assay on NCI/ADR-RES ovarian, 66.7 µM; in the assay with NCI-H23 lung, 43 µM; in the assay with CAKI-1 renal it was 36 µM; in the assay on IGROV1 ovarian, 40.8 µM; in the assay with K-562 leukemia, more than 100 µM. In addition, the TGI was determined as 43 µM in the assay on MCF7 breast, 32.5 µM with NCI-H460 lung, 38.8 µM in the assay with MDA-MB-435 and 38 µM in the assay on HOP-62 NSCLC.
Turning to `Cc1ccc(Nc2nc(=S)[nH]c3[nH]ncc23)cc1`, the TGI in the assay with MOLT-4 leukemia, in the assay on NCI/ADR-RES ovarian, with NCI-H23 lung, in the assay with CAKI-1 renal, in the assay with IGROV1 ovarian and in the assay on K-562 leukemia was more than 100 µM in each case. For the same compound, the TGI in the assay with MCF7 breast, in the assay on NCI-H460 lung, with MDA-MB-435 and in the assay with HOP-62 NSCLC was more than 100 µM throughout.
For `CCCCCCCCC[C@@H]1C[C@@H]2CCC3C(C(=O)OC)=C(C)NC(=N1)N32` (stereo not given in full), the TGI with MOLT-4 leukemia was more than 100 µM; with NCI/ADR-RES ovarian, 52.2 µM; in the assay with NCI-H23 lung, 16.3 µM; in the assay on CAKI-1 renal it was 37.8 µM; in the assay with IGROV1 ovarian, 19.4 µM; with K-562 leukemia it was 72.2 µM. The TGI turned out to be 15.9 µM in the assay with MCF7 breast, 16.3 µM in the assay on NCI-H460 lung, 6.04 µM in the assay on MDA-MB-435 and 26.9 µM in the assay with HOP-62 NSCLC.
Take `CC1=C(/C=C/C(C)=C/C=C/C(C)=C/C(=O)OCC2OC(n3cc(F)c(=O)[nH]c3=O)CC2OC(=O)/C=C(C)/C=C/C=C(C)/C=C/C2=C(C)CCCC2(C)C)C(C)(C)CCC1` (stereo not given): the TGI in the assay with MOLT-4 leukemia is more than 100 µM; with NCI/ADR-RES ovarian, more than 100 µM; in the assay on NCI-H23 lung, more than 90 µM; with CAKI-1 renal it was more than 100 µM; in the assay on IGROV1 ovarian, 20 µM; with K-562 leukemia it was more than 72.5 µM. Further, the TGI is 36.8 µM with MCF7 breast, more than 26.7 µM in the assay with NCI-H460 lung, more than 65.8 µM in the assay on MDA-MB-435 and more than 27.9 µM with HOP-62 NSCLC.
Regarding `CC(C)(C)OC(=O)[N+](=N)C(=O)C1CCC(=O)N1C(=O)OCc1ccccc1` (stereo not given), the TGI in the assay on MOLT-4 leukemia, in the assay with NCI/ADR-RES ovarian, with NCI-H23 lung, with CAKI-1 renal, in the assay on IGROV1 ovarian and in the assay with K-562 leukemia was more than 100 µM each time. Besides, the TGI with MCF7 breast, with NCI-H460 lung, in the assay with MDA-MB-435 and in the assay with HOP-62 NSCLC was more than 100 µM each time.
For `CN(C1=NCCO1)c1cccc2ccccc12`, the TGI in the assay on MOLT-4 leukemia, in the assay on NCI/ADR-RES ovarian, in the assay with NCI-H23 lung, with CAKI-1 renal, in the assay with IGROV1 ovarian and in the assay on K-562 leukemia was more than 10 µM throughout. Further, the TGI in the assay with MCF7 breast, with NCI-H460 lung, in the assay on MDA-MB-435 and with HOP-62 NSCLC was more than 10 µM in each case.
For the compound `Cc1ccc(S(=O)ON2CCC(C(=O)O)(c3ccccc3)CC2)cc1` (stereo not given), the TGI in the assay with MOLT-4 leukemia, in the assay with NCI/ADR-RES ovarian, in the assay with NCI-H23 lung, in the assay with CAKI-1 renal, in the assay on IGROV1 ovarian and with K-562 leukemia was more than 100 µM throughout. Also, the TGI with MCF7 breast, with NCI-H460 lung, in the assay on MDA-MB-435 and in the assay on HOP-62 NSCLC was more than 100 µM throughout.
For `Cn1c(=O)oc2cc(C(=O)CSC(=S)N3CCCCCC3)ccc21`, the TGI in the assay with MOLT-4 leukemia, with NCI/ADR-RES ovarian, in the assay with NCI-H23 lung, in the assay on CAKI-1 renal, in the assay with IGROV1 ovarian and in the assay with K-562 leukemia was more than 100 µM throughout. Moreover, the TGI in the assay with MCF7 breast, in the assay with NCI-H460 lung, in the assay on MDA-MB-435 and with HOP-62 NSCLC was more than 100 µM in each case.
As to `O=c1c2ccccc2nc2n1NC(c1c(Cl)cccc1Cl)N2c1cccc(Cl)c1` (stereo not given), the TGI is more than 100 µM in the assay with MOLT-4 leukemia; 68.5 µM in the assay with NCI/ADR-RES ovarian; 56.7 µM with NCI-H23 lung; 47.2 µM with CAKI-1 renal; 22.4 µM with IGROV1 ovarian; more than 100 µM in the assay on K-562 leukemia. The TGI in the assay with MCF7 breast was 5.2 µM; with NCI-H460 lung, 34.6 µM; in the assay on MDA-MB-435, more than 100 µM; in the assay with HOP-62 NSCLC, more than 100 µM.
Take `CC(=O)N=C(N=Nc1c(O)[nH]c2ccc(C)cc12)NC(C)=O`: the TGI with MOLT-4 leukemia, in the assay on NCI/ADR-RES ovarian, in the assay with NCI-H23 lung, in the assay on CAKI-1 renal, in the assay with IGROV1 ovarian and in the assay with K-562 leukemia was more than 100 µM in each case. In addition, the TGI in the assay on MCF7 breast, with NCI-H460 lung, in the assay with MDA-MB-435 and with HOP-62 NSCLC was more than 100 µM throughout.
For the compound `CN1CCCN2CCN(C)CCN(CC1)CC2`, the TGI in the assay on MOLT-4 leukemia, with NCI/ADR-RES ovarian, with NCI-H23 lung, in the assay on CAKI-1 renal, in the assay on IGROV1 ovarian and in the assay on K-562 leukemia was more than 100 µM in each case. Moreover, the TGI in the assay on MCF7 breast, in the assay on NCI-H460 lung, in the assay with MDA-MB-435 and in the assay on HOP-62 NSCLC was more than 100 µM throughout.
`Clc1ccc(N=C/C=C/Nc2ccc(Cl)cn2)nc1`: the TGI was determined as 19.4 µM with MOLT-4 leukemia; 32.6 µM with NCI/ADR-RES ovarian; 32.8 µM in the assay on NCI-H23 lung; 25.1 µM with CAKI-1 renal; 28.9 µM with IGROV1 ovarian; 23.2 µM with K-562 leukemia. Besides, the TGI was found to be 31.6 µM in the assay on MCF7 breast, 32.7 µM with NCI-H460 lung, 27.6 µM in the assay with MDA-MB-435 and 31 µM in the assay on HOP-62 NSCLC.

The values are drawn from PubChem BioAssay (NCI).
